The values that follow come from patent publication US12678423B2, “Therapeutic agent for amyotrophic lateral sclerosis and composition for treatment” (KEIO UNIVERSITY, priority 2016, dated 2026).

Assay type in all cases: cell-based, human
Common to all, as to details: final concentration 10 μM, added days 35 to 40

In test [1] the test system is motor neurons induced to differentiate from iPS cells derived from ALS patients (FUS-ALS) having a mutation in FUS. Briefly: Neurite length, FUS-ALS motor neurons (screening, Example I-8). The protocol:
(§1) For each differentiation-induced motor neuron in Example I-1, the changes over time in the neurite length were measured. A Bio station CT (Nikon Corp.) was used to measure the neurite length over time. FIG. 1 is a graph showing measurement results of changes over time in the neurite length. The vertical axis represents neurite length (relative value), and the horizontal axis represents the number of days of culturing from the start of differentiation induction.
(§2) Using the differentiation-induced motor neurons in Example I-1, drugs which cause the ALS phenotype to be restored were screened from existing drug libraries with the neurite length, ectopic localization of FUS protein, stress granule formation, LDH leakage ratio, CV-caspase 3-positive ratio, phosphorylated TDP-43 protein inclusion formation, and the like as indices.
(§3) As a result of the screening, ropinirole was found as a promising therapeutic agent for ALS. Tables 5 and 6 show the improvement ratio (%) in the ALS phenotype due to adding ropinirole to the medium. Here, ropinirole was added to the medium on days 35 to 40 from the start of the differentiation induction of each iPS cell. Here, it is assumed that days 35 to 40 from the start of differentiation induction correspond to the early stage of the ALS disease.
(§4) The improvement ratio (%) of the ALS phenotype was calculated by Equation (1).
(§5) [formula] [In Equation (1), A represents a measurement value of motor neurons induced to differentiate from iPS cells derived from ALS patients in the absence of ropinirole, and B represents a measurement value of motor neurons induced to differentiate from iPS cells derived from ALS patients in the presence of ropinirole, and C represents a measurement value of motor neurons induced to differentiate from iPS cells derived from healthy subjects in the absence of ropinirole.]
(§6) Subsequently, in the same manner as above, the efficacy in cases of administering lower concentrations of ropinirole was evaluated.
(§7) Each drug was added to the medium at a final concentration of 10 μM.

The test system is the same in test [2]. Briefly: Ectopic localization of FUS protein in the cytoplasm, FUS-ALS motor neurons.
Description: Therefore, on day 40 from the start of differentiation induction, each differentiation-induced motor neuron in Example I-1 was immunostained and the localization of FUS protein in the cytoplasm was examined.
as §2, §3, §4, §5, §6, §7

Test [3] shares this test system. In words: Stress granule formation (G3BP immunostaining), FUS-ALS motor neurons. Here is the method: On day 40 from the start of differentiation induction, the formation of stress granules was examined using each differentiation-induced motor neuron in Example I-1. The detection of stress granules was performed by immunostaining with G3BP, which is a marker of stress granules.
as §2, §3, §4, §5, §6, §7

Test [4] has the same test system. Briefly: LDH leakage ratio, FUS-ALS motor neurons. The protocol: (§8) The leakage amount of LDH into the medium is an indicator of cytotoxicity. For measurement of the LDH leakage ratio, a commercially available kit (model “LDH Cytotoxicity Detection Kit”, Takara Bio Inc.) was used.
(§9) Here, ropinirole was added to the medium on days 35 to 40 from the start of the differentiation induction of each iPS cell. Here, it is assumed that days 35 to 40 from the start of differentiation induction correspond to the early stage of the ALS disease.
as §4, §5, §6, §7

The test system of test [5] is motor neurons induced to differentiate from iPS cells derived from ALS patients (TDP-43-ALS) having a mutation in TDP-43. Briefly: Neurite length, TDP-43-ALS motor neurons (screening, Example I-8). The protocol: as §1, §2, §3, §4, §5, §6, §7
Test [6] shares this test system. Briefly: Phosphorylated TDP-43 protein inclusion formation, TDP-43-ALS motor neurons.
Description: Therefore, on day 40 from the start of differentiation induction, each differentiation-induced motor neuron in Example I-1 was immunostained and the formation of phosphorylated TDP-43 protein inclusions was examined.
as §2, §3, §4, §5, §6, §7

Test [7] has the same test system. Briefly: LDH leakage ratio, TDP-43-ALS motor neurons. Here is the method:
as §8, §9, §4, §5, §6, §7
Background: Release of lactate dehydrogenase indicates damage to the cell membrane.

On to `CO/N=C(\C(=O)N[C@@H]1C(=O)N2C(C(=O)O)=C(CSc3nc(=O)c(=O)[nH]n3C)CS[C@H]12)c1csc(N)n1` [Ceftriaxone], for which the “Neurite length improvement ratio” value in test [1] was found to be 36.3%; in test [5] it was 20.4%. Also, the “Ectopic localization of FUS protein improvement ratio” value in test [2] is 22.6%. The “Stress granule formation improvement ratio” value in test [3] was 11.0%. Moreover, the entries for the “LDH leakage ratio improvement ratio” value in test [4] and in test [7] were 21.2% and 15.1%, respectively. Further, the “TDP-43 inclusion formation improvement ratio” value in test [6] turned out to be 35.4%.
As to `CC1=NN(c2ccccc2)C(=O)C1` [Edaravone], the “Neurite length improvement ratio” value is 15.9% in test [1] and 14.2% in test [5]. The “Ectopic localization of FUS protein improvement ratio” value in test [2] is reported as 20.4%. Further, the “Stress granule formation improvement ratio” value in test [3] is recorded as 19.8%. The “LDH leakage ratio improvement ratio” value in test [4] came to 12.4%; in test [7] it was 23.2%. For the same molecule, the “TDP-43 inclusion formation improvement ratio” value in test [6] is 11.6%.
